Results taken from US20260034200A1, “TOLEROGENIC PEPTIDES” (University of Birmingham, priority 2022, published 2026).

How the values were obtained:
[1] = system: GAD65 P10-specific T-cell hybridomas; experiment: T-cell hybridoma screen with Priess cells as APCs, IL-2 ELISA; assay type: cell-based, mouse; details: hybridoma multi-clone 6 with HLA-DRB1*04:01 expressing APCs
Protocol: HLA-DR4 transgenic mice were injected subcutaneously with Complete Freund's Adjuvant (CFA) and 100 μg of GAD65 P10 30-mer. After 10 days, splenocytes were isolated and re-stimulated with GAD65 P10 30-mer for a further 4-5 days before fusion with hypoxanthine-aminopterin-thymidine (HAT) sensitive BW5147 cells using polyethylene glycol (PEG). Fused hybridomas were expanded in HAT selection media before antigen-specific screening. Co-cultures of 1×10^5 hybridomas and 2×10^5 Priess cells (an Epstein-Barr Virus (EBV) transformed DR4 (DRB1*04:01) expressing human cell line (ECACC 86052111)) as antigen presenting cells (APCs) were incubated for 48 h in a 96-well plate with peptide, whole GAD65 protein, or media only. Antigen-specific responses were determined by IL-2 secretion into culture supernatant by ELISA assay (BioLegend 431004). Hybridomas that proliferated in response to both GAD65 protein and GAD65 30-mer were single cell cloned by limiting dilution.
Six 15-mers that spanned the parent 30-mer amino acid sequence were generated by 3 amino acid shifts from the N-terminus toward the C-terminus.

[2] = system: MHC class II molecules on fixed or non-fixed HLA-DR4 transgenic mouse splenocytes (hybridoma SC3 readout); experiment: Fixed APC T-cell hybridoma screen; assay type: cell-based; details: co-culture with formaldehyde fixed and non-fixed HLA-DR4 splenocytes, 48 h
Protocol: Splenocytes from HLA-DR4 transgenic mice were formaldehyde fixed by the following protocol performed at room temperature; 5 min incubation with 0.5% w/v formaldehyde in PBS at 1×10^6 cells/mL quenched by addition of an equal volume of 0.4 M glycine in PBS solution for a further 5 min, before three washes with cold PBS. T-cell hybridoma screens were set up using 1×10^5 hybridomas and either 2×10^5 formaldehyde fixed APCs or 2×10^5 non-fixed APCs for 48 h co-culture with stimulant or control and responses measured by IL-2 secretion.
The next step was to test if GAD65 P10.5.C+1.6K (P10Sol; SEQ ID NO 23) could bind to: (i) MHC class II molecules without antigen processing and, (ii) to steady-state CD11c^+ APCs. These properties are good indicators of whether a peptide can induce tolerance and be characterised as an apitope (Shepard et al., 2021). Formaldehyde fixation of splenocytes inhibits antigen processing and so to test whether GAD65 P10Sol could bind directly to cell-surface MHC class II without antigen processing, GAD65 P10-specific hybridoma SC3 was co-cultured with fixed or non-fixed splenocytes from HLA-DR4 transgenic mice. […] To test whether P10Sol could bind to steady-state CD11c^+ APCs in vivo, HLA-DR4 transgenic mice were injected with 80 μg of P10Sol or PBS, with CD11c^+ splenocytes isolated 1 h later and co-cultured with GAD65 P10 hybridomas SC3 or SC22. […]

For “DAAWGGGLLMSRKHKWKLSGVERANSVTWN [P10 30-mer]”, the “hybridoma IL-2 response” value [1] was “could respond” and the “IL-2 response from hybridoma SC3” value [2] was “strong IL-2 responses”.
